Reference: ChEMBL document CHEMBL4665677, “Recent Advances of SHP2 Inhibitors in Cancer Therapy: Current Development and Clinical Application” (J Med Chem, 2020)
Blank lines part the entries; values can stand above or below the molecule they belong to.

Legend:
[1] = target: T1, Tyrosine-protein phosphatase non-receptor type 6 (Homo sapiens, UniProt P29350); test: Inhibition of recombinant His6-fused SHP1 catalytic domain (unknown origin) using p-nitrophenyl phosphate as substrate by spectrophotometric analysis
[2] = target: T1, Tyrosine-protein phosphatase non-receptor type 6; test: Inhibition of N-terminal His6-tagged TEV cleavage site-fused human SHP1 (222 to 535 residues) expressed in Escherichia coli BL21(DE3)RILcodon+ or BL21(DE3)RPcodon+ using 4-nitrophenylphosphate as substrate
[3] = target: T2, Tyrosine-protein phosphatase non-receptor type 1 (Homo sapiens, UniProt P18031); test: Inhibition of N-terminal His6-tagged TEV cleavage site-fused human PTP1B (2 to 297 residues) expressed in Escherichia coli BL21(DE3)RILcodon+ or BL21(DE3)RPcodon+ using 4-nitrophenylphosphate as substrate
T2 sequence (P18031 whole entry): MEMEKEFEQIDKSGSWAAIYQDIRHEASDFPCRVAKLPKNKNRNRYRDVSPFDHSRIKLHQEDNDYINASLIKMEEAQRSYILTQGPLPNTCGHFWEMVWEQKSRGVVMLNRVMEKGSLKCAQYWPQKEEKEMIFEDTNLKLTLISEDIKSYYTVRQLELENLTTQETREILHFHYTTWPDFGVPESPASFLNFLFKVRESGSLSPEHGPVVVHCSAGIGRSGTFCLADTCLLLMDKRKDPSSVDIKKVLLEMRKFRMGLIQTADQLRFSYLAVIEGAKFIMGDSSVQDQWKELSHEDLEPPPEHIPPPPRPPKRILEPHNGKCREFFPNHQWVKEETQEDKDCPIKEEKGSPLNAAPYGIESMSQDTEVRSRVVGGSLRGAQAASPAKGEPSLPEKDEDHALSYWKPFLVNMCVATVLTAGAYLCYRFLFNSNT

[4] = target: T3, Tyrosine-protein phosphatase non-receptor type 11 (Homo sapiens, UniProt Q06124); test: Allosteric inhibition of dPEG8 peptide-activated SHP2 (unknown origin) using DiFMUP as substrate preincubated for 30 followed by substrate addition and measured after 30 mins by fluorescence method
T3 sequence (Q06124 whole entry): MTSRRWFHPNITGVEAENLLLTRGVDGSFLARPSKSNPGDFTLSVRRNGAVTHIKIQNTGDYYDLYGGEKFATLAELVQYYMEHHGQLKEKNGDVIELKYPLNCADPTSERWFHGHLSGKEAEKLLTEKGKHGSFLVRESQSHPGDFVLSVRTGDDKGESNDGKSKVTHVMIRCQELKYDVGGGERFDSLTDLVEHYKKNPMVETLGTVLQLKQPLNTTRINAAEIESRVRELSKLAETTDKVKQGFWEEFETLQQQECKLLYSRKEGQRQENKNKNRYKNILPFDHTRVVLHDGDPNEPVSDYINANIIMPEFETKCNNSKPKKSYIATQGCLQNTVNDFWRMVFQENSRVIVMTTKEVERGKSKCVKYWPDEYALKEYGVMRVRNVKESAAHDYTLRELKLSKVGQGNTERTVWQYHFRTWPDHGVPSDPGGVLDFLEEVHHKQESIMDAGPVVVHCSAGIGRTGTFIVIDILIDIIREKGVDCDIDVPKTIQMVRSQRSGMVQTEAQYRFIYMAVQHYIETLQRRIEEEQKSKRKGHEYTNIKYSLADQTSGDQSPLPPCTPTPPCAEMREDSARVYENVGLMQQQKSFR

[5] = target: T3, Tyrosine-protein phosphatase non-receptor type 11; test: Inhibition of SHP2 PTP domain (unknown origin)
[6] = target: T3, Tyrosine-protein phosphatase non-receptor type 11; test: Allosteric inhibition of IRS1_pY1172(dPEG8)pY1222 activated-human full length SHP2 (Met1 to Leu525 residues) expressed in Escherichia coli BL21 Star (DE3) cells using DiFMUP as substrate preincubated for 30 to 60 mins followed by substrate addition and measured after 30 mins by fluorescence method
[7] = target: T3, Tyrosine-protein phosphatase non-receptor type 11; test: Allosteric inhibition of full length N-terminal His6-tagged human SHP2 (2 to 593 residues) expressed in Escherichia coli using DiFMUP as substrate in presence of activating peptide preincubated for 60 mins followed by substrate addition amd measured after 30 mins by fluorescence method
[8] = target: T4, Tyrosine-protein phosphatase non-receptor type 11 (Homo sapiens) (UniProt Q06124); test: Allosteric inhibition of dPEG8 peptide-activated SHP2 (unknown origin) using DiFMUP as substrate at 100 nM preincubated for 30 followed by substrate addition and measured after 30 mins by fluorescence method relative to control
T4 sequence (whole entry): T3 sequence (Q06124 whole entry)

MeWo = test: Antitumor activity against human MeWo cells xenografted in NSG (NOD/scid/IL2Rgnull) mouse assessed as reduction in tumor volume at 15 mg/kg, ip administered once daily for 21 days; assay type: functional; set-up: scale not given: the % may be the effect or the level left; conditions: time 21 day
[9] = target: T2, Tyrosine-protein phosphatase non-receptor type 1; test: Inhibition of PTP1B (unknown origin) using 6,8-difluoro-4-methylum-belliferylphosphate as substrate preincubated for 1 hr followed by substrate by fluorescence method
[10] = target: T3, Tyrosine-protein phosphatase non-receptor type 11; test: Inhibition of N-terminal His6-tagged TEV cleavage site-fused human SHP2 catalytic domain (248 to 527 residues) expressed in Escherichia coli Rosetta(DE3) using 6,8-difluoro-4-methylum-belliferylphosphate as substrate preincubated for 1 hr followed by substrate addition by fluorescence method
[11] = target: T1, Tyrosine-protein phosphatase non-receptor type 6; test: Inhibition of SHP1 (unknown origin) using 6,8-difluoro-4-methylum-belliferylphosphate as substrate preincubated for 1 hr followed by substrate by fluorescence method
[12] = target: T3, Tyrosine-protein phosphatase non-receptor type 11; test: Allosteric inhibition of full-length His6-tagged human SHP2 (2 to 527 residues) expressed in Escherichia coli using DiFMUP as substrate in presence of activating peptide (LN(pY)IDLDLV(dPEG8)LST(pY)ASINFQK-amide) by fluorescence method
[13] = target: Tyrosine-protein phosphatase non-receptor type 11 (Homo sapiens, UniProt Q06124, Q257L/T253M); test: Inhibition of SHP2 T253M/Q257L double mutant (unknown origin)
[14] = Antitumor activity against human LXFA526L cells xenografted in NMRI nu/nu mouse assessed as induction of tumor regression at 46 mg/kg, ip administered once daily and measured on day 27 relative to control; assay type: functional; conditions: time 27 day
[15] = target: T2, Tyrosine-protein phosphatase non-receptor type 1; test: Inhibition of His6-fused human PTP1B expressed in Escherichia coli cells using DiFMUP as substrate preincubated for 30 followed by substrate addition and by fluorescence method
[16] = target: T1, Tyrosine-protein phosphatase non-receptor type 6; test: Inhibition of His6-fused human SHP1 catalytic domain expressed in Escherichia coli cells using DiFMUP as substrate preincubated for 30 followed by substrate addition and by fluorescence method
[17] = target: T1, Tyrosine-protein phosphatase non-receptor type 6; test: Inhibition of His6-fused human full length SHP1 expressed in Escherichia coli cells using DiFMUP as substrate preincubated for 30 mins followed by substrate addition and by fluorescence method
[18] = target: T3, Tyrosine-protein phosphatase non-receptor type 11; test: Allosteric inhibition of SHP2 (unknown origin) using DiFMUP as substrate preincubated for 60 mins in presence of activating peptide IRS-1 followed by substrate addition and measured after 60 mins by fluorescence method
[19] = target: T3, Tyrosine-protein phosphatase non-receptor type 11; test: Allosteric inhibition of [IRSl_pY1172(dPEG8)pY1222] peptide-activated SHP2 (unknown origin) using DiFMUP as substrate preincubated for 30 to 60 mins followed by substrate addition and measured after 30 mins by fluorescence method

T1 sequence (P29350 whole entry, the tested form may be a part): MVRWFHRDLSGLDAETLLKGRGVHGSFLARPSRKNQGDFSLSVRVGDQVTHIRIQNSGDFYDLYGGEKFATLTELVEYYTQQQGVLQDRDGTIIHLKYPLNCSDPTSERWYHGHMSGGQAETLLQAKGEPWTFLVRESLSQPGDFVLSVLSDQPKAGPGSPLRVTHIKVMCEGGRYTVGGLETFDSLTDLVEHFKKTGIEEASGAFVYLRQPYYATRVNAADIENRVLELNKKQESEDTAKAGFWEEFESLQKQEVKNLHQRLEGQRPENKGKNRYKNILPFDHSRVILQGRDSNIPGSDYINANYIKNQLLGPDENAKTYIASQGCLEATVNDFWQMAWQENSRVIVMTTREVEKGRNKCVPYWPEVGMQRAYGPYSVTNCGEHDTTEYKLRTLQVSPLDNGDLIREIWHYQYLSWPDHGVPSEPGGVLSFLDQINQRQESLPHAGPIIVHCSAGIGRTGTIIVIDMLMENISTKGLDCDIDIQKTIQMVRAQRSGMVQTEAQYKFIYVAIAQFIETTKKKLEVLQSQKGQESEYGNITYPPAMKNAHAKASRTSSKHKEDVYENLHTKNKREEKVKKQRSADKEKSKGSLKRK
Sequence of Tyrosine-protein phosphatase non-receptor type 11 (Homo sapiens, UniProt Q06124, Q257L/T253M) (Q06124 2-593 T253M/Q257L limits assumed): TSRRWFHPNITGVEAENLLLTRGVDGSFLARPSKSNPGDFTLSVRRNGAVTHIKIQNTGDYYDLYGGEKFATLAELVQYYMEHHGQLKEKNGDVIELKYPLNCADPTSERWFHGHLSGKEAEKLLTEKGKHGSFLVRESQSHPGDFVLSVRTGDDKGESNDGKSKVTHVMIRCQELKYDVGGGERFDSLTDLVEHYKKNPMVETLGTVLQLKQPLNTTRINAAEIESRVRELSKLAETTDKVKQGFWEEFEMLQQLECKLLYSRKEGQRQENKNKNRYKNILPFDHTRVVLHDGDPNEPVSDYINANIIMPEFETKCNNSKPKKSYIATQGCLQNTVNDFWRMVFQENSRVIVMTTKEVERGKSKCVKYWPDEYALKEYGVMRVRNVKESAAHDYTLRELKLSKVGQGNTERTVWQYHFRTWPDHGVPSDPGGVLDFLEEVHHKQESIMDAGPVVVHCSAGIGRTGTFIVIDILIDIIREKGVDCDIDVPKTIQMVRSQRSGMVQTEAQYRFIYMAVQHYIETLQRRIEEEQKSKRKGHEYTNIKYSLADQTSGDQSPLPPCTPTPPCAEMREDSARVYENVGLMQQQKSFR

IC50 [1]: 11 µM
Compound: NC(=O)[C@H](Cc1ccc(C(F)(F)P(=O)(O)O)cc1)NC(=O)[C@H](CC(=O)O)NC(=O)Cc1ccc(C(F)(F)P(=O)(O)O)cc1

IC50 [2]: 1800 nM
IC50 [3]: 2100 nM
Compound: CCOC(=O)c1ccc(N2N=C(c3ccc([N+](=O)[O-])cc3)/C(=N/Nc3ccc(S(=O)(=O)O)cc3)C2=O)cc1

IC50 [4]: 3 nM
Compound: Nc1nc(N2CCC3(CC2)Cc2cnccc2[C@H]3N)cnc1Sc1ccnc(N)c1Cl

IC50 [5]: > 100 µM
IC50 [6]: > 100 µM
Compound: O=c1c2ccccc2n2c(-c3ccccc3O)nnc2n1Cc1ccccc1Cl

IC50 [7]: 22.3 nM
Compound: CC1(N)CCN(c2nc3sc(-c4cccc(Cl)c4Cl)nn3c2CO)CC1

inhibition [8]: 20%
Compound: Nc1nc(N2CCC3(CC2)c2ncccc2C[C@H]3N)cnc1Sc1ccnc(N)c1Cl

Compound: O=C(Nc1ccc(-c2cc[nH]c2)cc1)C(=O)Nc1cccc(-c2[nH]c3cc(O)c(C(=O)O)cc3c2I)c1
Activity (MeWo): 52%

IC50 [9]: 6.8 µM
IC50 [10]: 500 nM
IC50 [11]: 2.14 µM
Compound: COc1ccc(N2N=C(c3ccc([N+](=O)[O-])cc3)/C(=N/Nc3ccc(S(=O)(=O)O)cc3)C2=O)cc1

IC50 [12]: 100 nM
Compound: C[C@@H]1OCC2(CCC(c3cnc4nc(Sc5ccnc(N6CCCC6)c5Cl)ccc4n3)CC2)[C@@H]1N (some centres undefined)

Compound: COc1cccc(-c2nnc3n(Cc4ccccc4Cl)c(=O)c4ccccc4n23)c1O
IC50 [5]: > 100 µM
IC50 [13]: 68 µM

IC50 [5]: > 100 µM
Compound: O=C(O)c1ccc(O)c(-c2nnc3n(Cc4ccccc4Cl)c(=O)c4ccccc4n23)c1

IC50 [4]: 7 nM
Compound: Nc1nc(N2CCC3(CC2)Cc2ccncc2[C@H]3N)cnc1Sc1ccnc(N)c1Cl

IC50 [9]: 6.56 µM
IC50 [10]: 410 nM
IC50 [11]: 9.83 µM
Compound: Cc1ccc(N2N=C(c3ccc([N+](=O)[O-])cc3)/C(=N/Nc3ccc(S(=O)(=O)O)cc3)C2=O)cc1

Compound: O=C1/C(=N\Nc2ccc(S(=O)(=O)O)cc2)C(c2ccc([N+](=O)[O-])cc2)=NN1c1ccc([N+](=O)[O-])cc1
Activity [14]: 42.6%
IC50 [9]: 3.17 µM
IC50 [10]: 70 nM
IC50 [11]: 2.08 µM

IC50 [15]: > 10 µM
IC50 [16]: > 10 µM
IC50 [17]: > 10 µM
Compound: Cc1nc(N2CCC3(CC2)CO[C@@H](C)[C@H]3N)c(CO)nc1-c1cccc(Cl)c1Cl

IC50 [9]: 10.6 µM
IC50 [10]: 940 nM
IC50 [11]: 14.4 µM
Compound: O=C1/C(=N\Nc2ccc(S(=O)(=O)O)cc2)C(c2ccc([N+](=O)[O-])cc2)=NN1c1ccc(C(F)(F)F)cc1

IC50 [9]: 8.93 µM
IC50 [10]: 1160 nM
IC50 [11]: 10.2 µM
Compound: O=C1/C(=N\Nc2ccc(S(=O)(=O)O)cc2)C(c2ccc([N+](=O)[O-])cc2)=NN1c1ccc(Cl)cc1

IC50 [7]: 17.9 nM
Compound: CC1(N)CCN(c2cnc3c(-c4cccc(Cl)c4Cl)n[nH]c3c2)CC1

IC50 [5]: > 100 µM
Compound: COc1cccc(-c2nnc3n(Cc4ccc(C(=O)N5CCC[C@H]5C(=O)O)cc4Cl)c(=O)c4ccccc4n23)c1O

inhibition ([8]; filed as negative allosteric modulator): 49%
Compound: Nc1nc(N2CCC3(CC2)Cc2ncsc2[C@H]3N)cnc1Sc1ccnc(N)c1Cl

IC50 [18]: < 50 nM
Compound: CC1(CN)CCN(c2ncc(Sc3cccc(Cl)c3Cl)[nH]c2=O)CC1

IC50 [19]: 70 nM
Compound: Nc1nc(N2CCC3(CCC[C@H]3N)CC2)cnc1-c1cccc(Cl)c1Cl

inhibition [8]: 30%
Compound: Nc1nc(N2CCC3(CC2)Cc2ncccc2[C@H]3N)cnc1Sc1ccnc(N)c1Cl
